Experimental data as given in patent US20240209053A1 (Protagonist Therapeutics, Inc., priority 2021, published 2024).
Numbered stars: 1 amine (or outer) side, 2 acyl side, 3 side chain; on linkers, the order of the positions; unused ones are H or OH. Bridge positions count the residues as written; N and C are the ends. Square brackets hold non-standard residues; d marks the D form. Side chains are listed from the residue outwards. Peptide text beside a SMILES is read from it. * marks the point of attachment. Dip = N[C@H](C(=O)O)C(c1ccccc1)c1ccccc1; Hag = O=C([C@H](CCC=[*:3])N[*:1])[*:2]; Palmitoyl = CCCCCCCCCCCCCCCC(=O)*; NMeF = CN[C@@H](Cc1ccccc1)C(=O)O; β3hF = N[C@H](CC(=O)O)Cc1ccccc1; Isovaleryl = CC(C)CC(=O)*; Ahx = NCCCCCC(=O)O; GABA = NCCCC(=O)O

Experiments:
[1] = target: T1, human ferroportin (SLC40A1) (Homo sapiens, UniProt Q9NP59); experiment: FPN activity assay: internalization/degradation of ferroportin-GFP in stably transfected HEK293 cells (decrease in GFP fluorescence); type: cell-based; details: compound incubated at least 18 hours
T1 sequence (Q9NP59 1-571): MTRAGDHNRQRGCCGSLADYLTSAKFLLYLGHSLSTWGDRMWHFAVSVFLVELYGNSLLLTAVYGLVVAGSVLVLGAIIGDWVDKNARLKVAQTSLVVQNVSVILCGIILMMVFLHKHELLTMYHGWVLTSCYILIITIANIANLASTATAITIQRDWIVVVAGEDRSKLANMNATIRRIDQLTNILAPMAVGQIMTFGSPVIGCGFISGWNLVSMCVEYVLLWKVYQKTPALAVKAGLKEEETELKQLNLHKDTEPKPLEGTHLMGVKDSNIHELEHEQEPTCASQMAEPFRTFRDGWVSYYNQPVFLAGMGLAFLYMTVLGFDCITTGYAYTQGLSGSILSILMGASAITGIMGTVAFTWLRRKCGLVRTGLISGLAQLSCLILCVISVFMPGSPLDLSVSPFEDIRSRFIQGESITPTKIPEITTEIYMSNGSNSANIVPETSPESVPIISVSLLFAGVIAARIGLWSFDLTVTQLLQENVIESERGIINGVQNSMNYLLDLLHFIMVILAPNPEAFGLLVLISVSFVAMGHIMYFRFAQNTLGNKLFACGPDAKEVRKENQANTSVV
Experimental: Peptide analogues were tested in vitro for induction of internalization of the human ferroportin protein. Following internalization, the ferroporin protein is degraded. The assay used (FPN activity assay) measures a decrease in fluorescence of the receptor. The cDNA encoding the human ferroportin (SLC40A1) was cloned from a cDNA clone from Origene (NM_014585). The DNA encoding the ferroportin was amplified by PCR using primers also encoding terminal restriction sites for subcloning, but without the termination codon. The ferroportin receptor was subcloned into a mammalian GFP expression vector containing a neomycin (G418) resistance marker in such that the reading frame of the ferroportin was fused in frame with the GFP protein. The fidelity of the DNA encoding the protein was confirmed by DNA sequencing. HEK293 cells were used for transfection of the ferroportin-GFP receptor expression plasmid. The cells were grown according to standard protocol in growth medium and transfected with the plasmids using Lipofectamine (manufacturer's protocol, Invitrogen). The cells stably expressing ferroportin-GFP were selected using G418 in the growth medium (in that only cells that have taken up and incorporated the cDNA expression plasmid survive) and sorted several times on a Cytomation MoFloTM cell sorter to obtain the GFP-positive cells (488 nm/530 nm). The cells were propagated and frozen in aliquots. […] Compound was added to desired final concentration for at least 18 hours in the incubator. […] Compound was added to desired final concentration for at least 18 hours but no more than 24 hours in the incubator. […] The “RI” in RI-Mini-Hepcidin refers to Retro Inverse. A retro inverse peptide is a peptide with a reversed sequence in all D amino acids. An example is that […] becomes […]. The EC50 of these reference compounds for ferroportin internalization/degradation was determined according to the FPN activity assay described above. These peptides served as control standards.

ferroportin = target: T2, ferroportin (Homo sapiens, UniProt Q9NP59); experiment: T47D cell-based ferroportin internalization assay in presence of 0.5% mouse serum albumin (MSA); details: T47D cells
T2 sequence (Q9NP59 1-571): T1 sequence (Q9NP59 1-571)
Experimental: The potency of the peptides in causing ferroportin internalization was evaluated in a T47D cell-based assay. […] In this internalization assay, the potency of the test peptides was evaluated in presence of serum albumin which is the main protein component in the blood. T47D cells were maintained in RPMI media (containing required amount of fetal bovine serum) and regularly sub-cultured. In preparation for the assay, the cells were seeded in 96-well plates at a density of 80-100 k cells per well in 100 ul volume and allowed to rest overnight. On the next day, test peptides were first prepared in dilution series (10-point series, starting concentration of ˜5 μM, typically 3-4×fold dilution steps), all with 0.5% mouse serum albumin (MSA purified from mouse serum; Sigma, A3139). The test peptide dilution series were allowed to incubate at room temperature for 30 min. Then the media was aspirated from the 96-well cell plate and test peptide dilution series were added. After 1 hr incubation, the media with test peptides was aspirated out and AF647-conjugated detection peptide was added at fixed concentration of 200 nM. The AF647-conjugated detection peptide was previously verified to bind to ferroportin and cause its internalization. The cells were washed again after a 2 hr incubation in preparation for flow cytometry analysis. The Median Fluorescence Intensity (MFI) of the AF647-positive population was measured (after removing dead cells and non-singlets from the analysis). The MFI values were used to generate a dose-response curve and obtain IC50 potencies for the test peptides. The IC50 potencies were calculated by using 4-parameter non-linear fitting function in Graphpad Prism (Table 6A).

SMILES | IC50 [1] | IC50 (ferroportin)
CCCCCCCCCCCCCCCC(=O)NCCCCCC(=O)NCCCC[C@@H]1NC(=O)[C@H](C)NC(=O)[C@@H]2CCCN2C(=O)[C@H](C(c2ccccc2)c2ccccc2)NC(=O)[C@H](Cc2c[nH]cn2)NC(=O)[C@H]([C@@H](C)O)NC(=O)[C@@H](NC(=O)CC(C)C)CCC=CCC[C@@H](C(=O)N[C@H](CC(=O)N[C@H](CCCCN)C(N)=O)Cc2ccccc2)NC1=O (single isomer, unassigned) [Compd 37] | 100 to 500 nM | 100 to 500 nM
CCCCCCCCCCCCCCCC(=O)NCCCCCC(=O)NCCCC[C@H](NC(=O)C[C@H](Cc1ccccc1)NC(=O)[C@@H]1CCC=CCC[C@H](NC(=O)[C@@H]2CCCN2C(=O)[C@@H](NC(=O)[C@H](Cc2c[nH]cn2)NC(=O)[C@@H](NC(=O)[C@H](CCC(=O)O)NC(=O)CC(C)C)[C@@H](C)O)C(c2ccccc2)c2ccccc2)C(=O)N[C@@H]([C@@H](C)CC)C(=O)N1)C(=O)N[C@H](CCCCN)C(N)=O [Compd 6] (Isovaleryl-ETH[Dip]P[Hag]I[Hag][β3hF]K([Ahx-Palmitoyl])[dK]-NH2; staple 6-8) | 10 to 100 nM | 1 to 10 nM
CCCCCCCCCCCCCCCC(=O)NCCCCCC(=O)NCCCC[C@H](NC(=O)C[C@H](Cc1ccccc1)NC(=O)[C@@H](CCCCN)NC(=O)[C@@H]1CCC=CCC[C@H](NC(=O)[C@@H]2CCCN2C(=O)[C@@H](NC(=O)[C@H](Cc2c[nH]cn2)NC(=O)[C@@H](NC(=O)[C@H](CCC(=O)O)NC(=O)CC(C)C)[C@@H](C)O)C(c2ccccc2)c2ccccc2)C(=O)N1)C(=O)N[C@H](CCCCN)C(N)=O [Compd 15] | 10 to 100 nM | 1 to 10 nM
CCCCCCCCCCCCCCCC(=O)NCCCCCC(=O)NCCCC[C@H](NC(=O)[C@@H]1CCC=CCC[C@H](NC(=O)CC(C)C)C(=O)N[C@@H]([C@@H](C)O)C(=O)N[C@@H](Cc2c[nH]cn2)C(=O)N[C@@H](C(c2ccccc2)c2ccccc2)C(=O)N2CCC[C@H]2C(=O)N[C@@H](C)C(=O)N[C@@H]([C@@H](C)CC)C(=O)N1)C(N)=O [Compd 18] (Isovaleryl-[Hag]TH[Dip]PAI[Hag]K([Ahx-Palmitoyl])-NH2; staple 1-8) | 100 to 500 nM | 10 to 100 nM
CCCCCCCCCCCCCCCC(=O)NCCCCCC(=O)NCCCC[C@H](NC(=O)C[C@H](Cc1ccccc1)NC(=O)[C@@H]1CCC=CC[C@H](NC(=O)CC(C)C)C(=O)N[C@@H]([C@@H](C)O)C(=O)N[C@@H](Cc2c[nH]cn2)C(=O)N[C@@H](C(c2ccccc2)c2ccccc2)C(=O)N2CCC[C@H]2C(=O)N[C@@H](C)C(=O)N[C@@H]([C@@H](C)CC)C(=O)N1)C(=O)N[C@@H](CCCNC(=N)N)C(N)=O [Compd 23] | 10 to 100 nM | 1 to 10 nM
CCCCCCCCCCCCCCCC(=O)NCCCCCC(=O)NCCCC[C@@H]1NC(=O)[C@H](C)NC(=O)[C@@H]2CCCN2C(=O)[C@H](C(c2ccccc2)c2ccccc2)NC(=O)[C@H](Cc2c[nH]cn2)NC(=O)[C@H]([C@@H](C)O)NC(=O)[C@@H](NC(=O)CC(C)C)CCC=CCC[C@@H](C(=O)N[C@H](CC(N)=O)Cc2ccccc2)NC1=O [Compd 25] (Isovaleryl-[Hag]TH[Dip]PAK([Ahx-Palmitoyl])[Hag][β3hF]-NH2; staple 1-8) | 100 to 500 nM | 100 to 500 nM
CCCCCCCCCCCCCCCC(=O)NCCCCCC(=O)NCCCC[C@H](NC(=O)C[C@H](Cc1ccccc1)NC(=O)[C@@H]1CCC=CCC[C@H](NC(=O)CC(C)C)C(=O)N[C@@H]([C@@H](C)O)C(=O)N(C)[C@@H](Cc2c[nH]cn2)C(=O)N[C@@H](C(c2ccccc2)c2ccccc2)C(=O)N2CCC[C@H]2C(=O)N[C@@H](C)C(=O)N[C@@H]([C@@H](C)CC)C(=O)N1)C(=O)N[C@H](CCCCN)C(N)=O [Compd 50] | – | > 500 nM
CCCCCCCCCCCCCCCC(=O)NCCCCCC(=O)NCCCC[C@H](NC(=O)C[C@H](Cc1ccccc1)NC(=O)[C@@H]1CCC=CCC[C@H](NC(=O)CC(C)C)C(=O)N[C@@H]([C@@H](C)O)C(=O)N[C@@H](Cc2c[nH]cn2)C(=O)N(C)[C@@H](Cc2ccccc2)C(=O)N2CCC[C@H]2C(=O)N[C@@H](C)C(=O)N[C@@H]([C@@H](C)CC)C(=O)N1)C(=O)N[C@H](CCCCN)C(N)=O [Compd 51] (Isovaleryl-[Hag]TH[NMeF]PAI[Hag][β3hF]K([Ahx-Palmitoyl])[dK]-NH2; staple 1-8) | – | > 500 nM
CCCCCCCCCCCCCCCC(=O)NCCCCCC(=O)NCCCC[C@H](NC(=O)C[C@H](Cc1ccccc1)NC(=O)[C@@H]1CCC=CCC[C@H](NC(=O)CC(C)C)C(=O)N[C@@H]([C@@H](C)O)C(=O)N[C@@H](Cc2c[nH]cn2)C(=O)N[C@@H](C(c2ccccc2)c2ccccc2)C(=O)N2CCC[C@H]2C(=O)NCCCC(=O)N1)C(=O)N[C@H](CCCCN)C(N)=O [Compd 66] (Isovaleryl-[Hag]TH[Dip]P[GABA][Hag][β3hF]K([Ahx-Palmitoyl])[dK]-NH2; staple 1-7) | 10 to 100 nM | –

Next, values leading:

IC50 [1] | IC50 (ferroportin) | SMILES
10 to 100 nM | 1 to 10 nM | CCCCCCCCCCCCCCCC(=O)NCCCCCC(=O)NCCCC[C@H](NC(=O)C[C@H](Cc1ccccc1)NC(=O)[C@@H]1CCC=CCC[C@H](NC(=O)CC(C)C)C(=O)N[C@@H]([C@@H](C)O)C(=O)N[C@@H](Cc2c[nH]cn2)C(=O)N[C@@H](C(c2ccccc2)c2ccccc2)C(=O)N2CCC[C@H]2C(=O)N[C@@H](C)C(=O)N[C@@H]([C@@H](C)CC)C(=O)N1)C(N)=O [Compd 17]
1 to 10 nM | 10 to 100 nM | CCCCCCCCCCCCCCCC(=O)NCCCCCC(=O)NCCCC[C@H](NC(=O)C[C@H](Cc1ccccc1)NC(=O)[C@@H]1CC=CCC[C@H](NC(=O)CC(C)C)C(=O)N[C@@H]([C@@H](C)O)C(=O)N[C@@H](Cc2c[nH]cn2)C(=O)N[C@@H](C(c2ccccc2)c2ccccc2)C(=O)N2CCC[C@H]2C(=O)N[C@@H](C)C(=O)N[C@@H]([C@@H](C)CC)C(=O)N1)C(=O)N[C@@H](CCCNC(=N)N)C(N)=O [Compd 22]
10 to 100 nM | 10 to 100 nM | CCCCCCCCCCCCCCCC(=O)NCCCCCC(=O)NCCCC[C@@H]1NC(=O)[C@@H]2CCCN2C(=O)[C@H](C(c2ccccc2)c2ccccc2)NC(=O)[C@H](Cc2c[nH]cn2)NC(=O)[C@H]([C@@H](C)O)NC(=O)[C@@H](NC(=O)CC(C)C)CCC=CCC[C@@H](C(=O)N[C@H](CC(N)=O)Cc2ccccc2)NC(=O)[C@H]([C@@H](C)CC)NC1=O [Compd 24] (Isovaleryl-[Hag]TH[Dip]PK([Ahx-Palmitoyl])I[Hag][β3hF]-NH2; staple 1-8)
10 to 100 nM | – | CCCCCCCCCCCCCCCC(=O)NCCCCCC(=O)NCCCC[C@H](NC(=O)C[C@H](Cc1ccccc1)NC(=O)[C@@H]1CCC=CCC[C@H](NC(=O)CC(C)C)C(=O)N[C@@H]([C@@H](C)O)C(=O)N[C@@H](Cc2c[nH]cn2)C(=O)N[C@@H](CC(C)(C)C)C(=O)N2CCC[C@H]2C(=O)N[C@@H](C)C(=O)N[C@@H]([C@@H](C)CC)C(=O)N1)C(=O)N[C@H](CCCCN)C(N)=O [Compd 60]
100 to 500 nM | – | CCCCCCCCCCCCCCCC(=O)NCCCCCC(=O)NCCCC[C@@H]1NC(=O)C[C@H](Cc2ccccc2)NC(=O)[C@@H](CCCCN)NC(=O)[C@H]([C@@H](C)CC)NC(=O)[C@H](C)NC(=O)[C@@H]2CCCN2C(=O)[C@H](C(c2ccccc2)c2ccccc2)NC(=O)[C@H](Cc2c[nH]cn2)NC(=O)[C@H]([C@@H](C)O)NC(=O)[C@@H](NC(=O)CC(C)C)CCC=CCC[C@@H](C(N)=O)NC1=O [Compd 84] (Isovaleryl-[Hag]TH[Dip]PAI[dK][β3hF]K([Ahx-Palmitoyl])[Hag]-NH2; staple 1-11)
